Assay results as given in publication PMC11574108, “4-Furanylvinylquinoline derivative as a new scaffold for the design of oxidative stress initiator and glucose transporter inhibitor drugs” (Scientific Reports, 2024).

How the values were obtained:
K562 = assay: Monolayer antiproliferative MTS assay; format: cell-based, human; conditions: 2D model; for IC50: MTS, 72-h incubation
Source text: (§1) The human colon carcinoma cell line HCT 116 with wild-type p53 (p53^+/+) and the human glioblastoma cell line U-251 were obtained from ATCC, while the HCT 116 with a p53 deletion (p53^−/−) was kindly provided by Prof. M. Rusin from the Maria Sklodowska-Curie Memorial Cancer Center and Institute of Oncology in Gliwice, Poland. The human chronic myelogenous leukaemia cell line K562 and the normal human cell dermal fibroblast cell line NHDF were purchased from Sigma-Aldrich and PromoCell, respectively. Both the HCT 116 and U-251 cell lines were cultured in Dulbecco’s modified Eagle’s medium (DMEM) supplemented with 10% inactivated foetal bovine serum (FBS). The DMEM for the NHDF contained 15% non-inactivated FBS. K562 cells were cultured in RPMI medium completed by 10% inactivated FBS. Additionally, the media were supplemented with antibiotics (streptomycin and penicillin – 1% v/v; Sigma-Aldrich). The cell culture was conducted in 75 cm^2 flasks (Nunc) under standard conditions (37 °C, 5% CO2 humidified atmosphere). Furthermore, the cell lines were frequently tested for mycoplasma using the qRT-PCR technique with specific Mycoplasma primers to confirm the lack of contamination.
(§2) The cells were seeded in 96-well plates (Nunc) with 5,000 or 4,000 cells per well for the cancer cells and NHDF, respectively, and incubated under standard conditions at 37 °C overnight. The culture media were then changed for freshly prepared solutions of the tested compounds in various concentrations. After 72-h incubation the antiproliferative assay was carried out as follows: the solutions of the compounds were changed in each well to 100 µL DMEM without phenol red and 20 µL of CellTiter 96 AQueous One Solution-MTS (Promega). The plates were incubated for 1 h at 37 °C, and the absorbance was then measured at 490 nm using a multi-plate reader (Synergy 4, BioTek). The experiment for each sample was repeated at least three times. The results are presented as the half-maximal inhibitory concentration (IC50) values, which were estimated in comparison to untreated cells (control) and calculated using GraphPad Prism v.8.0 (USA).
(§3) However, the antiproliferative activity of derivative 13 with furan a ring was surprising. […] For this purpose, we selected two pancreatic cancer cell lines: AsPC-1, which is characterised by a deletion of the p53 protein[20] and PANC-1, which carries an R273H mutation. This mutation also occurred in the glioblastoma U-251 cell line[22],[23]. An additional non-adherent line that carries the TP53 mutation that results in the absence of p53 is the K562 leukemic cell line[24]. […] Moreover, 13 was selective toward […], as indicated by its SI values (3.35–9.41). Among all of the tested cell lines, the highest activity of the compound was found against the HCT 116 cells with the wild-type p53 protein (0.069 µM). […] The p53 protein also interacts with the metabolic pathways that are associated with glucose transport[25] as well as small molecules. In light of the above-mentioned facts, we also determined the cytotoxicity of the GLUT inhibitor BAY-876, which is based on a quinoline scaffold. […] Furthermore, BAY-876 was also toxic to normal cells.

U-251 = assay: Monolayer antiproliferative MTS assay; format: cell-based, human; conditions: 2D monolayer; for IC50: MTS, 72-h incubation
Source text: as §1, §2, §3

- IC50 (K562): 93 ± 9 nM
- IC50 (K562; Homo sapiens, K562, 72 h): < 100 nM
- IC50 (U-251): 87 ± 7 nM
- IC50 (U-251; Homo sapiens, U-251, 72 h): < 100 nM
Compound: O=[N+]([O-])c1ccc(/C=C/c2ccnc3ccccc23)o1 [Compound 13]
- SI (selectivity index) K562 (K562; relative to NHDF): 6.98
- SI (selectivity index) U-251 (U-251; relative to NHDF): 7.46
